Tests used:
[1] = system: subjects with uterine serous carcinoma (USC); assay: ZN-c3-001 (NCT04158336) open label, multicenter, Phase I dose escalation and expansion study; subjects with USC at doses ≥300 mg QD; format: in vivo, human; conditions: for Spleen: baseline 21 mm; for Peritoneum: baseline 17.8 mm
Method: ZN-c3-001 (NCT04158336) is an open label, multicenter, Phase I dose escalation and expansion study evaluating the safety and clinical activity of ZN-c3 in subjects with advanced or metastatic solid tumors, refractory to standard therapy or for whom no standard therapy is available. Oral, daily ZN-c3 dosing was escalated from 25 mg to 450 mg once daily (QD), with a recommended phase 2 dose of 300 mg QD. Here we report preliminary safety and efficacy results for subjects with USC who received ZN-c3 at doses ≥300 mg QD.

[2] = system: multiple cell lines and xenograft models; assay: in vitro antitumor activity in multiple cell lines and xenograft models; format: cell-based
[3] = subject #1, Follow-up 1 (February 2021)
[4] = subject #1, Follow-up 2 (April 2021)
[5] = subject #1, Follow-up 3 (June 2021)
[6] = subject #2, Follow-up 1 (March 2021)
[7] = subject #2, Follow-up 2 (April 2021)
[8] = subject #2, Follow-up 2 (April 2021), baseline 15 mm
[9] = subject #2, Follow-up 3 (June 2021)
[10] = subject #2, Follow-up 3 (June 2021), baseline 15 mm
[11] = subject #2, Follow-up 4 (July 2021)
[12] = subject #2, Follow-up 4 (July 2021), baseline 15 mm
[13] = subject #2, Follow-up 5 (August 2021)
[14] = subject #2, Follow-up 5 (August 2021), baseline 15 mm
[15] = subject #3, Follow-up 1 (May 2021)
[16] = subject #3, Follow-up 2 (July 2021)
[17] = subject #3, Follow-up 3 (August 2021)
[18] = subject #3, Follow-up 4 (September 2021)
[19] = subject #3, Follow-up 5 (November 2021)

Structure (SMILES): C=CCn1c(=O)c2cnc(Nc3ccc(N4CCN(C)CC4)cc3)nc2n1-c1ccc2c(n1)[C@@](O)(CC)CC2 [ZN-c3, (R)-2-allyl-1-(7-ethyl-7-hydroxy-6,7-dihydro-5H-cyclopenta[b]pyridin-2-yl)-6-((4-(4-methylpiperazin-1-yl)phenyl)amino)-1,2-dihydro-3H-pyrazolo[3,4-d]pyrimidin-3-one]
- progressive disease as best overall response ([1]; 1 of 11 evaluable USC subjects, ≥300 mg QD): 9.1%
- confirmed partial response as best overall response ([1]; 3 of 11 evaluable USC subjects, ≥300 mg QD): 27.3%
- stable disease as best overall response ([1]; 7 of 11 evaluable USC subjects, ≥300 mg QD): 63.6%
- Disease control rate (complete response, partial response, and stable disease) ([1]; 11 evaluable USC subjects, ≥300 mg QD): 90.9%
- Grade ≥3 TRAEs occurring in ≥2 subjects ([1]; 14 USC subjects, ≥300 mg QD): anemia and thrombocytopenia
- TRAEs grades 1-4 occurring in ≥3 subjects, by decreasing frequency ([1]; 14 USC subjects, ≥300 mg QD): nausea, vomiting, diarrhea, fatigue, decreased appetite, dehydration, and anemia
- subjects reporting at least one treatment-related adverse event (TRAE) ([1]; 14 USC subjects, ≥300 mg QD): 12 of 14
- subjects with each Grade ≥3 hematologic event (anemia, thrombocytopenia) ([1]; 14 USC subjects, ≥300 mg QD): 2 subjects each
- safety and tolerability ([1]; single agent, oral doses ≥300 mg QD): safe and well-tolerated
- peritoneum imaging result (FIG. 1) ([1]; subject #1, 2nd restaging (April 2021) vs baseline (November 2020)): confirmed partial response
- best response ([1]; subject #1, start 350 mg QD): Confirmed PR
- reduction overall ([1]; subject #1, start 350 mg QD): 49%
- time on the study drug until radiologic disease progression ([1]; subject #1, start 350 mg QD): 199 days
- Target Lesions ([1]; subject #1, start 350 mg QD, Follow-up 1 (February 2021), baseline 24 mm): 15 mm
- Tumor marker CA-125, minimum ([1]; subject #1, start 350 mg QD, after ~3 months of treatment, baseline 36 U/mL): 12 U/mL
- New Lesions [1, 3]: No
- Percentage of overall tumor reduction [1, 3]: −48.9%
- Tumor Response by RECIST 1.1 [1, 3]: Partial
- Spleen [1, 3]: 8 mm
- Target Lesions Sum ([1]; subject #1, Follow-up 1 (February 2021), baseline 45 mm): 23 mm
- New Lesions [1, 4]: No
- Percentage of overall tumor reduction [1, 4]: −48.9%
- Tumor Response by RECIST 1.1 [1, 4]: Partial
- Spleen [1, 4]: 7 mm
- Target Lesions ([1]; subject #1, Follow-up 2 (April 2021), baseline 24 mm): 16 mm
- Target Lesions Sum ([1]; subject #1, Follow-up 2 (April 2021), baseline 45 mm): 23 mm
- New Lesions [1, 5]: No
- Percentage of overall tumor reduction [1, 5]: −48.9%
- Tumor Response by RECIST 1.1 [1, 5]: Progressive
- Spleen [1, 5]: 7 mm
- Target Lesions ([1]; subject #1, Follow-up 3 (June 2021), baseline 24 mm): 16 mm
- Target Lesions Sum ([1]; subject #1, Follow-up 3 (June 2021), baseline 45 mm): 23 mm
- peritoneum imaging result (FIG. 2) ([1]; subject #2, 1st restaging (March 2021) vs baseline (January 2021)): partial response
- best response ([1]; subject #2, start 300 mg QD): Confirmed PR
- reduction overall ([1]; subject #2, start 300 mg QD): 43%
- time on the study drug until radiologic disease progression ([1]; subject #2, start 300 mg QD): 230 days
- Target Lesions ([1]; subject #2, start 300 mg QD, Follow-up 1 (March 2021), baseline 15 mm): 06 mm
- Tumor marker CA-125 ([1]; subject #2, start 300 mg QD, after 2 months of treatment, baseline 440 U/mL): < 50 U/mL
- New Lesions [1, 6]: No
- Percentage of overall tumor reduction [1, 6]: −43%
- Tumor Response by RECIST 1.1 [1, 6]: Partial Response
- Lymph Node ([1]; subject #2, Follow-up 1 (March 2021), baseline 15 mm): 11 mm
- Target Lesions Sum ([1]; subject #2, Follow-up 1 (March 2021), baseline 30 mm): 17 mm
- New Lesions [1, 7]: No
- Percentage of overall tumor reduction [1, 7]: −43%
- Tumor Response by RECIST 1.1 [1, 7]: Partial Response
- Lymph Node [1, 8]: 10 mm
- Target Lesions [1, 8]: 07 mm
- Target Lesions Sum ([1]; subject #2, Follow-up 2 (April 2021), baseline 30 mm): 17 mm
- New Lesions [1, 9]: No
- Percentage of overall tumor reduction, from baseline [1, 9]: −40% from baseline
- Percentage of overall tumor reduction, from nadir [1, 9]: +6% from nadir
- Tumor Response by RECIST 1.1 [1, 9]: Partial Response
- Lymph Node [1, 10]: 10 mm
- Target Lesions [1, 10]: 8 mm
- Target Lesions Sum ([1]; subject #2, Follow-up 3 (June 2021), baseline 30 mm): 18 mm
- New Lesions [1, 11]: No
- Percentage of overall tumor reduction, from baseline [1, 11]: −30% from baseline
- Percentage of overall tumor reduction, from nadir [1, 11]: +24% from nadir
- Tumor Response by RECIST 1.1 [1, 11]: Partial Response
- Lymph Node [1, 12]: 10 mm
- Target Lesions [1, 12]: 11 mm
- Target Lesions Sum ([1]; subject #2, Follow-up 4 (July 2021), baseline 30 mm): 21 mm
- New Lesions [1, 13]: No
- Percentage of overall tumor reduction, from baseline [1, 13]: −30% from baseline
- Percentage of overall tumor reduction, from nadir [1, 13]: +24% from nadir
- Tumor Response by RECIST 1.1 [1, 13]: Progressive Disease
- Lymph Node [1, 14]: 10 mm
- Target Lesions [1, 14]: 11 mm
- Target Lesions Sum ([1]; subject #2, Follow-up 5 (August 2021), baseline 30 mm): 21 mm
- peritoneum imaging result (FIG. 3) ([1]; subject #3, 5th restaging (November 2021) vs baseline (April 2021)): complete response
- best response ([1]; subject #3, start 300 mg QD): Unconfirmed Complete Response
- reduction overall ([1]; subject #3, start 300 mg QD): 100%
- time on the study drug until clinical disease progression ([1]; subject #3, start 300 mg QD): 252 days
- Target Lesions ([1]; subject #3, start 300 mg QD, Follow-up 1 (May 2021), baseline 36.6 mm): 21.7 mm
- New Lesions [1, 15]: No
- Percentage of overall tumor reduction [1, 15]: −32%
- Tumor Response by RECIST 1.1 [1, 15]: Partial Response
- Peritoneum [1, 15]: 15.3 mm
- Target Lesions Sum ([1]; subject #3, Follow-up 1 (May 2021), baseline 54.4 mm): 37 mm
- New Lesions [1, 16]: No
- Percentage of overall tumor reduction [1, 16]: −67.8%
- Tumor Response by RECIST 1.1 [1, 16]: Partial Response
- Peritoneum ([1]; subject #3, Follow-up 2 (July 2021), (too small)): 5 mm (too small)
- Target Lesions ([1]; subject #3, Follow-up 2 (July 2021), baseline 36.6 mm): 12.5 mm
- Target Lesions Sum ([1]; subject #3, Follow-up 2 (July 2021), baseline 54.4 mm): 17.5 mm
- New Lesions [1, 17]: No
- Percentage of overall tumor reduction [1, 17]: −76.5%
- Tumor Response by RECIST 1.1 [1, 17]: Partial Response
- Peritoneum ([1]; subject #3, Follow-up 3 (August 2021), (too small)): 5 mm (too small)
- Target Lesions ([1]; subject #3, Follow-up 3 (August 2021), baseline 36.6 mm): 7.8 mm
- Target Lesions Sum ([1]; subject #3, Follow-up 3 (August 2021), baseline 54.4 mm): 12.8 mm
- New Lesions [1, 18]: No
- Percentage of overall tumor reduction [1, 18]: −82%
- Tumor Response by RECIST 1.1 [1, 18]: Partial Response
- Peritoneum ([1]; subject #3, Follow-up 4 (September 2021), (too small)): 5 mm (too small)
- Target Lesions ([1]; subject #3, Follow-up 4 (September 2021), baseline 36.6 mm, (too small)): 5 mm (too small)
- Target Lesions Sum ([1]; subject #3, Follow-up 4 (September 2021), baseline 54.4 mm): 10 mm
- New Lesions [1, 19]: No
- Percentage of overall tumor reduction [1, 19]: −100%
- Tumor Response by RECIST 1.1 [1, 19]: Complete Response
- Peritoneum [1, 19]: 0 mm
- Target Lesions ([1]; subject #3, Follow-up 5 (November 2021), baseline 36.6 mm): 0 mm
- Target Lesions Sum ([1]; subject #3, Follow-up 5 (November 2021), baseline 54.4 mm): 0 mm
- clinical activity ([1]; subjects with recurrent or advanced USC, Examples 1-3): demonstrated clinical activity
- antitumor activity [2]: significant in vitro antitumor activity

Source: patent publication US20240197743A1, “WEE1 COMPOUND FOR TREATING UTERINE SEROUS CARCINOMA” (Recurium IP Holdings, LLC, priority 2021, published 2024)
